Entries after “also recorded” stand apart in the source; their conditions may differ.
Key:
NFAT signal = NFAT signal inhibitory effect: pNFAT-Luc luciferase reporter assay with ionomycin stimulation; type: cell-based, human; details: HEK293 cells transfected with pNFAT-Luc; 1 μM ionomycin; assay after 8 hours; FIG. 4
Description: (1) Materials and Methods for Evaluation System
In this evaluation system, human kidney (HEK293) cells were purchased from ATCC (American Type Culture Collection) and used. HEK293 cells were cultured in DMEM (High glucose, 10% heat-inactivated FBS) under the conditions of 37° C. and 5% CO2.
In this evaluation system, HEK293 cells transfected with a plasmid having firefly luciferase introduced into the downstream of the NFAT-binding sequence, pNFAT-Luc (Stratagene), were used. More specifically, pNFAT-Luc (Stratagene), in which firefly luciferase gene was introduced in the downstream of 4 copies of the NFAT-binding sequence, was transfected into HEK293 cells for an evaluation of the NFAT transcription activity. Furthermore, for the purpose of eliminating fluctuation due to the transfection efficiency, pRL-CMV (Promega) having Renilla luciferase introduced in the downstream of CMV promoter, was simultaneously transfected so as to correct for the signal derived from firefly luciferase.
Transfection was carried out using LipofectAMINE 2000 reagent (Invitrogen) according to the manual. The medium was exchanged eight hours after the transfection, and the system was incubated overnight. Thereafter, the component A, component B and component C obtained in Example 1, and the deacylation product of the component A prepared in Example 3 were added thereto, and further after one hour, 1 μM ionoinycin was added thereto. After 8 hours, a luciferase reporter assay was carried out.
Luciferase Reporter Assay
The luciferase reporter assay was carried out using Dual-Glo Luciferase Assay System (Promega) according to the manual. That is, the medium was removed, and then Dual-Glo luciferase reagent which had been diluted two times with PBS, was added thereto. The system was stirred, and after 20 minutes, the firefly luciferase activity was measured. Thereafter, an equal amount of Dual-Glo Stop&Glo reagent was added to the system, the mixture was stirred, and then the Renilla luciferase activity was measured. The luciferase activity measurement was carried out using MiniLumat LB 9506 (EG&G Berthold), and the amount of luminescence by luciferase was quantitatively detected. For both luciferases, the duration for luciferase activity measurement was set to 2 seconds.
Calculation of NFAT Signal Inhibitory Rate.
All of the NFAT transcription activity values (firefly luciferase activity) were corrected by dividing the values of the Renilla luciferase activity introduced for the transfection efficiency correction. Thereafter, the NFAT signal inhibitory rate was calculated by the following expression.
NFAT signal inhibitory rate (%)=100−(Test sample and ionomycin-added group−non-stimulation group)/(Ionomycin only-added group−non-stimulation group)×100

swine hair follicles = assay: Evaluation of hair shaft elongation by swine hair follicle organ culture; type: cell-based; details: isolated pig hair follicles cultured 8 days; solvent control (ethanol) taken as 100%; FIG. 6
Description: Evaluation of Hair Shaft Elongation by Swine Hair Follicle Organ Culture
The skin of buttocks of a pig for meat was separated into an appropriate size, and excess fatty tissue was removed. The pigskin was disinfected by immersing in a hibitane solution (5% hibitane solution (Dainippon Sumitomo Pharma Co., Ltd.) diluted to 5 to 20 times with water) for 5 minutes to 10 minutes under sterile conditions, and after that was washed several times with D-PBS. Subsequently, hair follicles were isolated from the washed pigskin under a stereoscopic microscope, and the hair follicles were collected in William's Medium E (Invitrogen) medium. […]
The component A and component B obtained in Example 1 were added to the above-mentioned medium, and the system was cultured for 8 days, together with an ethanol-added group, which was a solvent control. Stereomicroscopic images of the culture were captured on the day of culture initiation (zeroth day) and on the eighth day with a CCD camera (Pixera Model No. PVC 100C), and from those images, the length from the base of the hair bulb to the tip of the hair shaft was measured. Thereafter, the hair shaft elongation ratios of the component A and component B obtained in Example 1 were calculated, with the amount of hair shaft elongation of the solvent control group before and after culture being taken as 100%.

| SMILES | NFAT signal inhibitory rate (NFAT signal) | hair shaft elongation ratio (hair-growing effect) (swine hair follicles) |
| --- | --- | --- |
| C/C=C(/C)C(=O)OC1c2c(ccc3ccc(=O)oc23)O[C@@H]1C(C)(C)OC(=O)/C(C)=C\C (stereo partly drawn) [component A, archangelicin] | inhibited the NFAT signal; also recorded: strong NFAT signal inhibitory activity | significant hair shaft elongation |
| C/C=C(/C)C(=O)OC1c2c(ccc3ccc(=O)oc23)OC1C(C)(C)OC(=O)CC(C)C (stereo not drawn) [component B, 3′-angeloyloxy-4′-isovaleryloxy-2′,3′-dihydrooroselol] | inhibited the NFAT signal; also recorded: strong NFAT signal inhibitory activity | significant hair shaft elongation |
| C/C=C(/C)C(=O)OC1c2c(ccc3ccc(=O)oc23)O[C@@H]1C(C)(C)OC(=O)C=C(C)C (stereo partly drawn) [component C, 3′-angeloyloxy-4′-senecioyloxy-2′,3′-dihydrooroselol] | inhibited the NFAT signal; also recorded: strong NFAT signal inhibitory activity |  |
| C/C=C(/C)C(=O)OC(C)(C)[C@H]1Oc2ccc3ccc(=O)oc3c2[C@H]1O [deacylation product of the component A, 3′-hydroxy-4′-angeloyloxy-2′,3′-dihydrooroselol] | inhibited the NFAT signal |  |
